Measurements published in US20230348416A1, “GPR52 MODULATOR COMPOUNDS” (Heptares Therapeutics Limited, priority 2020, published 2023).

What was measured:
human GPR52 = molecular target: T1, human GPR52 (Homo sapiens, UniProt Q9Y2T5); assay: GPR52 Agonist Functional cAMP Assay; type: cell-based; conditions: for EC50: HEKf cells infected with human GPR52 BacMam virus, HTRF cAMP, 30 min at 37° C., read-out: PEC50 average (converted); for Emax / Emax (%): maximal response normalised to DMSO (0%) and compound 7m of J. Med. Chem., 2014, 57, 5226 (100%)
T1 construct: expressed in transfected cells; host or cells: HEKf suspension cells infected with BacMam virus
Description: GPR52 Agonist Functional cAMP Assay
HEKf suspension cells were infected for 24 h with 0.1% v/v human GPR52 expressing BacMam virus, a modified baculovirus designed for mammalian gene expression. Following BacMam infection, cells were pelleted by centrifugation (335 g, 5 min), resuspended in cell freezing medium (Sigma) and frozen at −150° C. until required. On experiment day, 25 nL GPR52 compound dilutions, prepared in DMSO, were stamped onto proxiplates (PerkinElmer) by a LabCyte ECHO acoustic dispenser. Frozen cells were thawed and resuspended in assay stimulation buffer (Cisbio) containing 0.5 mM 3-iso-butyl-1-methylxanthine (IBMX, Sigma) to achieve a density of 2000 cells per well. 10 μl cells were added to assay plates using a Multidrop Combi Reagent Dispenser (ThermoFisher) before centrifugation (335 g, 1 min). Cells were incubated with compounds at 37° C. for 30 min prior to addition of cAMP detection reagents (HiRange cAMP kit, Cisbio) which were prepared according to the manufacturer's instructions. Plates were shaken for 1 h at room temperature before reading on a PHERAstar FS plate reader (BMG Labtech) using standard HTRF settings. HTRF ratios were obtained by dividing the acceptor emissions (665 nm) by the donor emissions (620 nm) and multiplying by 10,000.

[1] = test system: caffeine-induced hyperlocomotor activity; assay: Attenuation of caffeine-induced locomotor activity in rat; type: in vivo, male Sprague-Dawley rats; conditions: PO 60 min before caffeine 15 mg/kg SC, locomotor activity over 2 h, FIG. 1
From the text: Caffeine, a non-selective adenosine receptor antagonist, is a psychostimulant which increases rodent locomotor activity principally via blockade of A2A receptors (Br. J. Pharmacol., 2000, 129, 1465). These receptors are densely expressed on the terminals of GABAergic striatopallidal neurons in the indirect pathway of the basal ganglia, in which dopamine D2 receptors are co-expressed (J. Comp. Neurol., 1998, 401, 163; J. Comp. Neurol., 2001, 431, 331). Tonic activation of A2A receptors decreases the affinity of D2 receptors to dopamine and antagonism of A2A receptors facilitates dopaminergic signalling (Curr. Pharm. Des., 2008, 14, 1468). […] Male Sprague-Dawley rats (200-250 g) were housed in groups with a 12 h light/dark cycle (lights on at 07.00), at an ambient temperature of 21±2° C. and with standard pelleted diet and water adlibitum. Testing was carried out in the light phase. On the day of the experiment, animals were habituated to the locomotor cages for a 60-minute period. Subsequently, they were dosed with vehicle or Example 2 Isomer 1 (0.1, 0.3, 1 and 3 mg/kg) by the oral route and returned to the appropriate locomotor cage. Example 2 Isomer 1 was formulated in a vehicle of 10% DMAC, 10% solutol (Kolliphor HS15) and 80% water (v/v/v). […] Locomotor activity was assessed for a 2 h period after caffeine treatment. […] SEMs were calculated from the residuals of the statistical model. […]

T1 sequence (Q9Y2T5 whole entry): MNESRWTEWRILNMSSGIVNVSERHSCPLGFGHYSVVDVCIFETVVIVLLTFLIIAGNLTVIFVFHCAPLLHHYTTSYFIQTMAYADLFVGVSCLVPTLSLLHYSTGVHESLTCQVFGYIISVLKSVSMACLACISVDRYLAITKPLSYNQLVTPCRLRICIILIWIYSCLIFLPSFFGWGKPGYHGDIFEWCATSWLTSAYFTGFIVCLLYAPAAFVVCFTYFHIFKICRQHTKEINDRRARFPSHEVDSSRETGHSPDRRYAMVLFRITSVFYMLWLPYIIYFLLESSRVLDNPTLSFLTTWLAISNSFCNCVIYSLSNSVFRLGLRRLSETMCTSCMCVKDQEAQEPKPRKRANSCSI

| SMILES | EC50 (human GPR52) | Emax (human GPR52) | Emax (%) (human GPR52) | effect on caffeine-induced hyperlocomotor response [1] |
| --- | --- | --- | --- | --- |
| NC1CCCc2c1nnn2-c1cc(Cc2cc(F)cc(C(F)(F)F)c2)ccn1 (single isomer, unassigned) [Example 1 Isomer 1, 1-(4-(3-fluoro-5-(trifluoromethyl)benzyl)pyridin-2-yl)-4,5,6,7-tetrahydro-1H-benzo[d][1,2,3]triazol-4-amine] | 12.6 nM | 101% |  |  |
| CC(=O)NC1CCCc2c1nnn2-c1cc(Cc2cc(F)cc(C(F)(F)F)c2)ccn1 (single isomer, unassigned) [Example 2 Isomer 2, N-(1-(4-(3-fluoro-5-(trifluoromethyl)benzyl)pyridin-2-yl)-4,5,6,7-tetrahydro-1H-benzo[d][1,2,3]triazol-4-yl)acetamide] | 2510 nM | 78% |  |  |
| CC(=O)NC1CCCc2c1nnn2-c1cc(Cc2cc(F)cc(C(F)F)c2)ccn1 (stereo not drawn) [Example 13, N-(1-(4-(3-(difluoromethyl)-5-fluorobenzyl)pyridin-2-yl)-4,5,6,7-tetrahydro-1H-benzo[d][1,2,3]triazol-4-yl)acetamide] | 12.6 nM | 93% |  |  |
| CCC(=O)NC1CCCc2c1nnn2-c1cc(Cc2cc(F)cc(C(F)(F)F)c2)ccn1 (stereo not drawn) [Example 3, N-(1-(4-(3-fluoro-5-(trifluoromethyl)benzyl)pyridin-2-yl)-4,5,6,7-tetrahydro-1H-benzo[d][1,2,3]triazol-4-yl)propionamide] | 25.1 nM | 96% |  |  |
| CC(=O)NC1CCCc2c1nnn2-c1cc(Cc2cccc(C(F)(F)F)c2)ccn1 (stereo not drawn) [Example 11, N-(1-(4-(3-(trifluoromethyl)benzyl)pyridin-2-yl)-4,5,6,7-tetrahydro-1H-benzo[d][1,2,3]triazol-4-yl)acetamide] | 200 nM | 91% |  |  |
| NC1CCCc2c1nnn2-c1cc(Cc2cc(F)cc(C(F)(F)F)c2)ccn1 (stereo not drawn) [Example 1, 1-(4-(3-fluoro-5-(trifluoromethyl)benzyl)pyridin-2-yl)-4,5,6,7-tetrahydro-1H-benzo[d][1,2,3]triazol-4-amine] | 25.1 nM | 100% |  |  |
| CC(=O)NC1CCCc2c1nnn2-c1cc(Cc2cc(F)cc(CF)c2)ccn1 (stereo not drawn) [Example 14, N-(1-(4-(3-fluoro-5-(fluoromethyl)benzyl)pyridin-2-yl)-4,5,6,7-tetrahydro-1H-benzo[d][1,2,3]triazol-4-yl)acetamide] | 50.1 nM | 90% |  |  |
| CC(=O)NC1CCCc2c1nnn2-c1cc(Cc2cc(F)cc(C(F)(F)F)c2)ccn1 (single isomer, unassigned) [Example 2 Isomer 1, N-(1-(4-(3-fluoro-5-(trifluoromethyl)benzyl)pyridin-2-yl)-4,5,6,7-tetrahydro-1H-benzo[d][1,2,3]triazol-4-yl)acetamide] | 15.8 nM |  | 91% | dose-dependent reduction of the caffeine-induced hyperlocomotor response, reaching statistical significance across all time points at 3 and 10 mg/kg |
| CC(=O)NC1CCCc2c1nnn2-c1cc(Cc2cc(F)cc(C(F)F)c2)ccn1 (single isomer, unassigned) [Example 13 Isomer 2, N-(1-(4-(3-(difluoromethyl)-5-fluorobenzyl)pyridin-2-yl)-4,5,6,7-tetrahydro-1H-benzo[d][1,2,3]triazol-4-yl)acetamide] | 5.01 nM |  | 93% |  |
| NC1CCCc2c1nnn2-c1cc(Cc2cc(F)cc(C(F)(F)F)c2)ccn1 (single isomer, unassigned) [Example 1 Isomer 2, 1-(4-(3-fluoro-5-(trifluoromethyl)benzyl)pyridin-2-yl)-4,5,6,7-tetrahydro-1H-benzo[d][1,2,3]triazol-4-amine] | 63.1 nM |  | 97% |  |
| CC(=O)NC1CCCc2c1nnn2-c1cc(Cc2cc(F)cc(OC(F)F)c2)ccn1 (stereo not drawn) [Example 12, N-(1-(4-(3-(difluoromethoxy)-5-fluorobenzyl)pyridin-2-yl)-4,5,6,7-tetrahydro-1H-benzo[d][1,2,3]triazol-4-yl)acetamide] | 31.6 nM | 87% |  |  |
| COCCNC1CCCc2c1nnn2-c1cc(Cc2cc(F)cc(C(F)(F)F)c2)ccn1 (stereo not drawn) [Example 8, 1-(4-(3-fluoro-5-(trifluoromethyl)benzyl)pyridin-2-yl)-N-(2-methoxyethyl)-4,5,6,7-tetrahydro-1H-benzo[d][1,2,3]triazol-4-amine] | 50.1 nM | 94% |  |  |
| Fc1cc(Cc2ccnc(-n3nnc4c3CCCC4NC3CCOC3)c2)cc(C(F)(F)F)c1 (stereo not drawn) [Example 10, 1-(4-(3-fluoro-5-(trifluoromethyl)benzyl)pyridin-2-yl)-N-(tetrahydrofuran-3-yl)-4,5,6,7-tetrahydro-1H-benzo[d][1,2,3]triazol-4-amine] | 31.6 nM | 94% |  |  |
| CC(=O)NC1CCCc2c1nnn2-c1cc(Oc2cc(F)cc(C(F)(F)F)c2)ccn1 (stereo not drawn) [Example 6, N-(1-(4-(3-fluoro-5-(trifluoromethyl)phenoxy)pyridin-2-yl)-4,5,6,7-tetrahydro-1H-benzo[d][1,2,3]triazol-4-yl)acetamide] | 126 nM | 89% |  |  |
| O=C(CF)NC1CCCc2c1nnn2-c1cc(Cc2cc(F)cc(C(F)(F)F)c2)ccn1 (stereo not drawn) [Example 5, 2-fluoro-N-[1-(4-{[3-fluoro-5-(trifluoromethyl)phenyl]methyl}pyridin-2-yl)-4,5,6,7-tetrahydro-1H-benzotriazol-4-yl]acetamide] | 39.8 nM | 94% |  |  |
| CC(=O)NC1CCCc2c1nnn2-c1cc(Cc2cc(F)cc(C(F)F)c2)ccn1 (single isomer, unassigned) [Example 13 Isomer 1, N-(1-(4-(3-(difluoromethyl)-5-fluorobenzyl)pyridin-2-yl)-4,5,6,7-tetrahydro-1H-benzo[d][1,2,3]triazol-4-yl)acetamide] | 501 nM | 73% |  |  |
| Fc1cc(Cc2ccnc(-n3nnc4c3CCCC4NC3COC3)c2)cc(C(F)(F)F)c1 (stereo not drawn) [Example 9, 1-(4-(3-fluoro-5-(trifluoromethyl)benzyl)pyridin-2-yl)-N-(oxetan-3-yl)-4,5,6,7-tetrahydro-1H-benzo[d][1,2,3]triazol-4-amine] | 100 nM | 93% |  |  |
| CNC1CCCc2c1nnn2-c1cc(Cc2cc(F)cc(C(F)(F)F)c2)ccn1 (stereo not drawn) [Example 7, 1-(4-(3-fluoro-5-(trifluoromethyl)benzyl)pyridin-2-yl)-N-methyl-4,5,6,7-tetrahydro-1H-benzo[d][1,2,3]triazol-4-amine] | 31.6 nM | 98% |  |  |
| O=C(NC1CCCc2c1nnn2-c1cc(Cc2cc(F)cc(C(F)(F)F)c2)ccn1)C(F)F (stereo not drawn) [Example 4, 2,2-difluoro-N-(1-(4-(3-fluoro-5-(trifluoromethyl)benzyl)pyridin-2-yl)-4,5,6,7-tetrahydro-1H-benzo[d][1,2,3]triazol-4-yl)acetamide] | 25.1 nM | 87% |  |  |
